For 49 compounds, IC50 results are on record in patent publication US10233191B2, “Fused piperidine amides as modulators of ion channels” (Vertex Pharmaceuticals Incorporated, priority 2013, dated 2019).

A value given as a limit tells only on which side of the number the result lay.

This assay deals with T1, NaV 1.7 (Homo sapiens, UniProt Q15858).
T1 construct: expressed in transfected cells; host or cells: HEK cells
Briefly: E-VIPR optical membrane potential assay with electrical stimulation. Type of assay: cell-based. Particulars: active against one or more sodium channels; assay/subtype not specified in Table 4; read-out: IC50 Binned Activity Data. An excerpt:
E-VIPR Optical Membrane Potential Assay Method with Electrical Stimulation
Sodium channels are voltage-dependent proteins that can be activated by inducing membrane voltage changes by applying electric fields. The electrical stimulation instrument and methods of use are described in Ion Channel Assay Methods PCT/US01/21652, herein incorporated by reference and are referred to as E-VIPR. The instrument comprises a microtiter plate handler, an optical system for exciting the coumarin dye while simultaneously recording the coumarin and oxonol emissions, a waveform generator, a current- or voltage-controlled amplifier, and a device for inserting electrodes in well. Under integrated computer control, this instrument passes user-programmed electrical stimulus protocols to cells within the wells of the microtiter plate.
24 hours before the assay on E-VIPR, HEK cells expressing human NaV subtype, like NaV 1.7, are seeded in 384-well poly-lysine coated plates at 15,000-20,000 cells per well. Other subtypes are performed in an analogous mode in a cell line expressing the NaV of interest. HEK cells are grown in media (exact composition is specific to each cell type and NaV subtype) supplemented with 10% FBS (Fetal Bovine Serum, qualified; GibcoBRL #16140-071) and 1% Pen-Strep (Penicillin-Streptomycin; GibcoBRL #15140-122). Cells are grown in vented cap flasks, in 90% humidity and 10% CO2, to 100% confluence. They are usually split by trypsinization 1:10 or 1:20, depending on scheduling needs, and grown for 2-3 days before the next split.
• 100 mg/mL Pluronic F-127 (Sigma #P2443), in dry DMSO • Compound Plates: 384-well round bottom plate, e.g. Corning 384-well Polypropylene Round Bottom #3656 • Cell Plates: 384-well tissue culture treated plate, e.g. Greiner #781091-1B • 10 mM DiSBAC6(3) (Aurora #00-100-010) in dry DMSO • 10 mM CC2-DMPE (Aurora #00-100-008) in dry DMSO • 200 mM ABSC1 in H2O
Bath1 buffer. Glucose 10 mM (1.8 g/L), Magnesium Chloride (Anhydrous), 1 mM (0.095 g/L), Calcium Chloride, 2 mM (0.222 g/L), HEPES 10 mM (2.38 g/L), Potassium Chloride, 4.5 mM (0.335 g/L), Sodium Chloride 160 mM (9.35 g/L).
Hexyl Dye Solution: Bath1 Buffer+0.5% β-cyclodextrin (make this prior to use, Sigma #C4767), 8 μM CC2-DMPE+2.5 μM DiSBAC6(3). To make the solution Add volume of 10% Pluronic F127 stock equal to volumes of CC2-DMPE+DiSBAC6(3). The order of preparation is first mix Pluronic and CC2-DMPE, then add DiSBAC6(3) while vortexing, then add Bath1+β-Cyclodextrin.
1) Pre-spot compounds (in neat DMSO) into compound plates. Vehicle control (neat DMSO), the positive control (20 mM DMSO stock tetracaine, 125 μM final in assay) and test compounds are added to each well at 160× desired final concentration in neat DMSO. Final compound plate volume will be 80 μL (80-fold intermediate dilution from 1 μL DMSO spot; 160-fold final dilution after transfer to cell plate). Final DMSO concentration for all wells in assay is 0.625%.
2) Prepare Hexyl Dye Solution.
3) Prepare cell plates. On the day of the assay, medium is aspirated and cells are washed three times with 100 μL of Bath1 Solution, maintaining 25 μL residual volume in each well.
4) Dispense 25 μL per well of Hexyl Dye Solution into cell plates. Incubate for 20-35 minutes at room temp or ambient conditions.
5) Dispense 80 μL per well of Bath1 into compound plates. Acid Yellow-17 (1 mM) is added and Potassium Chloride can be altered from 4.5 to 20 mM depending on the NaV subtype and assay sensitivity.
6) Wash cell plates three times with 100 μL per well of Bath1, leaving 25 μL of residual volume. Then transfer 25 uL per well from Compound Plates to Cell Plates. Incubate for 20-35 minutes at room temp/ambient condition
7) Read Plate on E-VIPR. Use the current-controlled amplifier to deliver stimulation wave pulses for typically 9 seconds and a scan rate of 400 Hz. A pre-stimulus recording is performed for 0.5 seconds to obtain the un-stimulated intensities baseline. […]

T1 sequence (Q15858 whole entry): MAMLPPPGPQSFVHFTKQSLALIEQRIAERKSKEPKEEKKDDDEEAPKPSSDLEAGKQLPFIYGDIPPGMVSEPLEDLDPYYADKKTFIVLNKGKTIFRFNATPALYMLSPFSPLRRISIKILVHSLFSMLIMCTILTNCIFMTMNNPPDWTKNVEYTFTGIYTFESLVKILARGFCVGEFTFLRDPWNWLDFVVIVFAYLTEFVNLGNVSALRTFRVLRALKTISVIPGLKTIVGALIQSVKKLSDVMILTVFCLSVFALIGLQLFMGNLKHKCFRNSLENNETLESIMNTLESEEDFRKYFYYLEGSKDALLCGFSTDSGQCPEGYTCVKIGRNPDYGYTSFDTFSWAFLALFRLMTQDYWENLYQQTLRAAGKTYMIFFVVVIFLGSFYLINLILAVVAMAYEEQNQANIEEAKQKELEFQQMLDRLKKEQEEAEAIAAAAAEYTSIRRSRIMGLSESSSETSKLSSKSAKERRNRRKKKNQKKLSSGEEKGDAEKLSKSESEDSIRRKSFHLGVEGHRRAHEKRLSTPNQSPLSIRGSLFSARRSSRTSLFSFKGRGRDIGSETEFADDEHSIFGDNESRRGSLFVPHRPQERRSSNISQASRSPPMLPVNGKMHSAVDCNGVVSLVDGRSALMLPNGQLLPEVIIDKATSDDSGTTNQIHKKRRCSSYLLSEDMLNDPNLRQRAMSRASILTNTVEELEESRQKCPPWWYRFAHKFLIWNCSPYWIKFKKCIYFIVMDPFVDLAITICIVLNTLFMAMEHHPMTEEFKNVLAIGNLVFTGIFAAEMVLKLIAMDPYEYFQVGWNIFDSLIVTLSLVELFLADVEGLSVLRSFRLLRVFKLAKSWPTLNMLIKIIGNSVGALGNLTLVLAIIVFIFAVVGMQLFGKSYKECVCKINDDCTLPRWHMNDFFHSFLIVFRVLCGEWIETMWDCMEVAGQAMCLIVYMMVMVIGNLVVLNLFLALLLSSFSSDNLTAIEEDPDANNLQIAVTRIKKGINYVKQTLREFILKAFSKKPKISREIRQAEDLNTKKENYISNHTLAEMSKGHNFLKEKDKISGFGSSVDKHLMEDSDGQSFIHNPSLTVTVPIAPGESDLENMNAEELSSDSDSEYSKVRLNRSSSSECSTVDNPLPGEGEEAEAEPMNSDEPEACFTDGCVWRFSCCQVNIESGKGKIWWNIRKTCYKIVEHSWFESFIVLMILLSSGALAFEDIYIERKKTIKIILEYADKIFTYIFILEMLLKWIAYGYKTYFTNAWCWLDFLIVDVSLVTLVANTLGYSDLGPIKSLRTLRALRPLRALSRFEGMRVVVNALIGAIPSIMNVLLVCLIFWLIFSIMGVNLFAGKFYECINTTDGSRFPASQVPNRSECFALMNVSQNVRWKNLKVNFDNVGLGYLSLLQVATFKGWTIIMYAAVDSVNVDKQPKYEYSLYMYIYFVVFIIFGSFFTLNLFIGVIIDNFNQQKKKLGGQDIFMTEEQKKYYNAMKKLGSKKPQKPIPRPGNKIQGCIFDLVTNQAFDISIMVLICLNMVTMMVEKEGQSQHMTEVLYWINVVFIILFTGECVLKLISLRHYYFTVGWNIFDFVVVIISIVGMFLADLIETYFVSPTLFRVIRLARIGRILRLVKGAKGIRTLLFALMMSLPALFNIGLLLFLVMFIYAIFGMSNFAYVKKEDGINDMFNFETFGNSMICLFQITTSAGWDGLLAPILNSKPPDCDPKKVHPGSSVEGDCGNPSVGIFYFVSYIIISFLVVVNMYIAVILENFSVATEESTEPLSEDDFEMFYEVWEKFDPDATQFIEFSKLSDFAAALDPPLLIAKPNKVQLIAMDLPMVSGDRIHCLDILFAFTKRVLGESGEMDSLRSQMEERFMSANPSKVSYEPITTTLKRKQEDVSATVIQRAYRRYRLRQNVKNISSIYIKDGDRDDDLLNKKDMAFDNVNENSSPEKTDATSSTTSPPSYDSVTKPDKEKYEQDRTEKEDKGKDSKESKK

Consider `COc1cc(C(=O)N2CCC3(c4ccccc4)CC3C2)ccc1COCCC(F)(F)F` (stereo not shown) [Compound 136], for which the IC50 – broadly, the concentration at which inhibition is half-maximal – was ≤ 2000 nM.

Turning to `COc1cc(C(=O)N2CCC3(c4ccccn4)OCCC3C2)ccc1OCCOC(F)(F)F` (stereo not shown) [Compound 66], the IC50 is ≤ 2000 nM.

Consider `COc1cc(C(=O)N2CC[C@]3(c4ccccn4)OCOC3C2)cc(Cl)c1OCCOC(F)(F)F` (stereo partly shown) [Compound 105], for which the IC50 is ≤ 2000 nM.

`COc1cc(C(=O)N2CC[C@@]3(c4ccccc4)OCOC3C2)ccc1OCCOC(F)(F)F` (stereo partly shown) [Compound 148]: the concentration for half-maximal inhibition (IC50) was ≤ 2000 nM.

On to `Cc1cc(C(=O)N2CC[C@@]3(c4ccccc4)OCOC3C2)ccc1OCC(C)(C)F` (stereo partly shown) [Compound 120], for which the IC50 is ≤ 2000 nM.

As for `Cc1cc(C(=O)N2CC[C@]3(c4cccc(F)c4)OCOC3C2)ccc1OCC(C)(C)F` (stereo partly shown) [Compound 256], the IC50 was ≤ 2000 nM.

`Cc1cc(C(=O)N2CCC3(c4ccccc4)CC3C2)ccc1C(C)(C)O` (stereo not shown) [Compound 113]: the IC50 is ≤ 2000 nM.

Consider `[2H]C1([2H])OC2CN(C(=O)c3ccc(OCCOC(F)(F)F)c(OC)n3)CC[C@]2(c2cc(F)cc(F)c2)O1` (stereo partly shown) [Compound 309], for which the IC50 is ≤ 2000 nM.

For the compound `[2H]C1([2H])OC2CN(C(=O)c3ccc(OCCOC(F)(F)F)c(C)n3)CC[C@]2(c2ccccn2)O1` (stereo partly shown) [Compound 303], the IC50 is ≤ 2000 nM.

In the case of `Cc1cc(C(=O)N2CC[C@]3(c4ccc(F)cc4)OCOC3C2)ccc1OCC(C)(C)F` (stereo partly shown) [Compound 124], the IC50 is ≤ 2000 nM.

For the compound `COc1cccnc1[C@]12CCN(C(=O)c3ccc(OCCOC(F)(F)F)c(Cl)c3)CC1OCO2` (stereo partly shown) [Compound 94], the IC50 is ≤ 2000 nM.

On to `Cc1cc(C(=O)N2CC[C@@]3(c4ccccc4)OCOC3C2)ccc1C(C)(C)O` (stereo partly shown) [Compound 49], for which the IC50 is > 5000 nM.

For `COc1nc(C(=O)N2CC[C@@]3(c4nccs4)OCOC3C2)ccc1OCCOC(F)(F)F` (stereo partly shown) [Compound 126], the IC50 is ≤ 2000 nM.

Regarding `CC(C)(O)c1ccc(C(=O)N2CCC3(c4ccccc4)CC3C2)cc1` (stereo not shown) [Compound 29], the IC50 was ≤ 2000 nM.

As to `CCOc1nc(C(=O)N2CC[C@]3(c4nccs4)OCOC3C2)ccc1OCCOC(F)(F)F` (stereo partly shown) [Compound 118], the IC50 is ≤ 2000 nM.

On to `COc1nc(C(=O)N2CC[C@]3(c4cccc(F)c4F)OCOC3C2)ccc1OC(C)C(F)(F)F` (stereo partly shown) [Compound 263], for which the IC50 is ≤ 2000 nM.

As for `COc1nc(C(=O)N2CC[C@]3(c4cccc(Cl)c4)OCOC3C2)ccc1OCC1CC(F)(F)C1` (stereo partly shown) [Compound 175], the half-inhibitory concentration (IC50) is ≤ 2000 nM.

With `COc1nc(C(=O)N2CC[C@]3(c4cccc(C#N)c4)OCOC3C2)ccc1OCCOC(F)(F)F` (stereo partly shown) [Compound 292], the IC50 was ≤ 2000 nM.

For `COc1cc(C(=O)N2CC[C@@]3(c4ccccn4)COC[C@H]3C2)ccc1OCCOC(F)(F)F` [Compound 64], the IC50 was ≤ 2000 nM.

For `COc1cc(C(=O)N2CCC3(c4ccccn4)OCOC3C2)ccc1OCCOC(F)(F)F` (stereo not shown) [Compound 68], the IC50 is ≤ 2000 nM.

`COc1cc(C(=O)N2CCC3(c4ccccc4)CC3C2)ccc1OCC(C)(C)F` (stereo not shown) [Compound 158]: the IC50 is ≤ 2000 nM.

As for `O=C(c1cccc2c1OCC2)N1CCC2(c3ccccc3)CC2C1` (stereo not shown) [Compound 20], the IC50 was in the range of 2000 to 5000 nM.

On to `Cc1nc(C(=O)N2CCC3(c4ccccc4)OCC3C2)ccc1OC(C)C` (stereo not shown) [Compound 56], for which the IC50 is ≤ 2000 nM.

On to `COc1nc(C(=O)N2CC[C@]3(c4cccc(Cl)c4)OCOC3C2)ccc1OCC1(C(F)(F)F)CC1` (stereo partly shown) [Compound 270], for which the IC50 is ≤ 2000 nM.

In the case of `Cc1cc(C(=O)N2CC[C@]3(c4ccccn4)OCOC3C2)ccc1OCCOC(F)(F)F` (stereo partly shown) [Compound 165], the IC50 is ≤ 2000 nM.

Turning to `COc1cc(C(=O)N2CC[C@]3(c4ncccc4F)OCOC3C2)ccc1OCC1CC(F)(F)C1` (stereo partly shown) [Compound 1], the IC50 is ≤ 2000 nM.

For the compound `CC(C)Oc1ccc(C(=O)N2CCC3(c4ccccc4)CC3C2)cc1F` (stereo not shown) [Compound 16], the IC50 lay in the range of 2000 to 5000 nM.

As to `COc1nc(C(=O)N2CC[C@]3(c4csc(C)n4)OCOC3C2)ccc1OCCOC(F)(F)F` (stereo partly shown) [Compound 88], the IC50 is ≤ 2000 nM.

For the compound `COc1cccnc1[C@]12CCN(C(=O)c3ccc(OCCOC(F)(F)F)c(C)c3)CC1OCO2` (stereo partly shown) [Compound 89], the IC50 is ≤ 2000 nM.

In the case of `O=C(c1cccc2cccnc12)N1CC[C@]2(c3ccccc3)OCOC2C1` (stereo partly shown) [Compound 76], the IC50 is ≤ 2000 nM.

Consider `COc1cc(C(=O)N2CC[C@]3(c4ccccn4)OCOC3C2)ccc1OC(C)CC(F)(F)F` (stereo partly shown) [Compound 61], for which the IC50 is ≤ 2000 nM.

Consider `COc1cc(C(=O)N2CC[C@]3(c4cccc(F)c4)OCOC3C2)ccc1OC(C)C(F)(F)C(F)F` (stereo partly shown) [Compound 239], for which the IC50 was ≤ 2000 nM.

In the case of `CC(C)(F)COc1ccc(C(=O)N2CC[C@]3(c4ccccn4)OCOC3C2)cc1Cl` (stereo partly shown) [Compound 110], the IC50 was ≤ 2000 nM.

For the compound `Cc1nc([C@]23CCN(C(=O)c4ccc(OCCOC(F)(F)F)c(Cl)c4)CC2OCO3)cs1` (stereo partly shown) [Compound 149], the IC50 is ≤ 2000 nM.

In the case of `Cc1cc(C(=O)N2CCC3(c4ccc(F)cc4)CC3C2)ccc1OCC(C)(C)O` (stereo not shown) [Compound 44], the IC50 was ≤ 2000 nM.

For the compound `COc1cc(C(=O)N2CC[C@]3(c4cc(F)cc(F)c4)OCOC3C2)ccc1OCC1CC(F)(F)C1` (stereo partly shown) [Compound 225], the IC50 is ≤ 2000 nM.

Take `Cc1cc(C(=O)N2CC[C@]3(c4ncccc4F)OCOC3C2)ccc1OCC(C)(C)F` (stereo partly shown) [Compound 100]: the 50% inhibitory concentration (IC50) is ≤ 2000 nM.

For the compound `COc1cc(C(=O)N2CC[C@]3(c4cc(F)ccc4F)OCOC3C2)ccc1OC(C)C(F)(F)F` (stereo partly shown) [Compound 286], the IC50 was ≤ 2000 nM.

`COc1cc(C(=O)N2CC[C@]3(c4ncccc4F)OCOC3C2)ccc1OCCOC(F)(F)F` (stereo partly shown) [Compound 93]: the IC50 is ≤ 2000 nM.

On to `COc1cc(C(=O)N2CC[C@]3(c4cc(C(F)(F)F)ccn4)OCOC3C2)ccc1OCCOC(F)(F)F` (stereo partly shown) [Compound 179], for which the IC50 was ≤ 2000 nM.

As for `O=C(c1cccc2cccnc12)N1CC[C@@]2(c3ccccc3)OCOC2C1` (stereo partly shown) [Compound 43], the IC50 fell in the range of 2000 to 5000 nM.

Regarding `Cc1cc(C(=O)N2CC[C@@]3(c4nccs4)OCOC3C2)ccc1OCC(F)(F)F` (stereo partly shown) [Compound 63], the IC50 is ≤ 2000 nM.

Consider `COc1cccnc1[C@]12CCN(C(=O)c3ccc(OCC(C)(C)F)c(C)c3)CC1OCO2` (stereo partly shown) [Compound 34], for which the IC50 was ≤ 2000 nM.

As for `COc1nc(C(=O)N2CC[C@]3(c4cc(C(F)(F)F)ccn4)OCOC3C2)ccc1OCC1CC(F)(F)C1` (stereo partly shown) [Compound 250], the half-maximal inhibitory concentration (IC50) is ≤ 2000 nM.

Regarding `Cc1cc(C(=O)N2CC[C@]3(c4nccs4)OCOC3C2)ccc1OCC(C)(C)F` (stereo partly shown) [Compound 97], the IC50 was ≤ 2000 nM.

As for `Cc1cc(C(=O)N2CC[C@]3(c4cccc(OCC(C)C)n4)OCOC3C2)ccc1OCCOC(F)(F)F` (stereo partly shown) [Compound 80], the IC50 was ≤ 2000 nM.

As for `O=C(c1cccc2cccnc12)N1CCC2(c3ccccc3)OCC2C1` (stereo not shown) [Compound 33], the IC50 was ≤ 2000 nM.

Regarding `COc1nc(C(=O)N2CC[C@]3(c4cccc(F)c4)OCOC3C2)ccc1OCC1CC=CC1` (stereo partly shown) [Compound 232], the IC50 is ≤ 2000 nM.

With `COc1cc(C(=O)N2CC[C@]3(c4cccc(C#N)c4)OCOC3C2)ccc1OCCOC(F)(F)F` (stereo partly shown) [Compound 293], the IC50 is ≤ 2000 nM.
